Experiment [1] has as its target T1, TLR2/TLR6 (Homo sapiens, UniProt O60603+Q9Y2C9). Description: Agonist activity at TLR2/TLR6 in human PBMC cells assessed as increase in IL-10 production at 0.1 ug/ml incubated for 24 hrs. To be noted: filed as agonist, dose 0.1 µg/ml. The experiment is classed as cell-based.
Experiment [2] addresses T1, TLR2/TLR6. Kind of experiment: Agonist activity at TLR2/TLR6 in human PBMC cells assessed as increase in TNF-alpha production at 0.1 ug/ml incubated for 24 hrs. The experiment is classed as cell-based. To be noted: filed as agonist, dose 0.1 µg/ml.
Experiment [3] has as its target T1, TLR2/TLR6. Kind of experiment: Agonist activity at TLR2/TLR6 in human PBMC cells assessed as increase in IL-6 production at 0.1 ug/ml incubated for 24 hrs. The experiment is classed as cell-based. To be noted: filed as agonist, dose 0.1 µg/ml.
In experiment [4] the target is T1, TLR2/TLR6. Kind of experiment: Agonist activity at human TLR2/TLR6 expressed in HEK-Blue hTLR2-TLR6 cells by SEAP reporter gene based Quanti-blue assay. The experiment is classed as cell-based.
Experiment [5] has as its target T2, TLR2/TLR6 (Mus musculus) (UniProt Q9QUN7+Q9EPW9). Kind of experiment: Agonist activity at TLR2/TLR6 in C57BL/6 mouse spleen dendritic cells assessed as increase in CD86 expression incubated for 24 hrs by fluorescence based flow cytometric analysis. The experiment is classed as tissue-based. To be noted: Dendritic cell, filed as agonist, dose 10-0.1 µg/ml, DDE = dose-dependent effect.

Experiment [6] concerns the target T2, TLR2/TLR6 (Mus musculus). Description: Agonist activity at TLR2/TLR6 in C57BL/6 mouse spleen dendritic cells assessed as increase in CD40 expression incubated for 24 hrs by fluorescence based flow cytometric analysis. The experiment is classed as tissue-based. As to conditions: Dendritic cell, filed as agonist, dose 10-0.1 µg/ml, DDE = dose-dependent effect.

Experiment [7] deals with T2, TLR2/TLR6 (Mus musculus). Description: Agonist activity at TLR2/TLR6 in C57BL/6 mouse spleen B cells assessed as increase in CD86 expression incubated for 24 hrs by fluorescence based flow cytometric analysis. To be noted: B cell, filed as agonist, dose 10-0.1 µg/ml, DDE = dose-dependent effect. The experiment is classed as tissue-based.
In experiment [8] the target is T2, TLR2/TLR6 (Mus musculus). Description: Agonist activity at TLR2/TLR6 in C57BL/6 mouse spleen B cells assessed as increase in CD40 expression incubated for 24 hrs by fluorescence based flow cytometric analysis. The experiment is classed as tissue-based. To be noted: B cell, filed as agonist, dose 10-0.1 µg/ml, DDE = dose-dependent effect.
Experiment [9] concerns Mus musculus. Description: Protection against influenza A/California/04/2009 virus-challenged C57BL/6 mouse assessed as effect on body weight at 10 ug, IM administered twice 2 weeks apart along with recombinant influenza A/California/04/2009 HA protein immunization. The experiment is classed as functional, organism-based. As to conditions: dose 10.0 µg.
The subject of experiment [10] is Mus musculus. Description: Immuno-adjuvant activity in C57BL/6 mouse immunized with recombinant influenza A/California/04/2009 HA protein assessed as increase in anti-HAs antibody at 10 ug, IM administered twice 2 weeks apart by ELISA analysis. The experiment is classed as functional, organism-based. As to conditions: dose 10.0 µg.
In experiment [11] the test system is Mus musculus. Description: Protection against influenza A/California/04/2009 virus-challenged C57BL/6 mouse assessed as effect on survival at 10 ug, IM administered twice 2 weeks apart along with recombinant influenza A/California/04/2009 HA protein immunization. As to conditions: dose 10.0 µg. The experiment is classed as functional, organism-based.
In experiment [12] the target is T2, TLR2/TLR6 (Mus musculus). Description: Agonist activity at TLR2/TLR6 in C57BL/6 mouse spleen B cells assessed as increase in CD86 expression at 10 to 0.1 ug/ml incubated for 24 hrs by fluorescence based flow cytometric analysis. The experiment is classed as tissue-based. To be noted: B cell, filed as agonist, dose 10-0.1 µg/ml.
Experiment [13] deals with T2, TLR2/TLR6 (Mus musculus). Kind of experiment: Agonist activity at TLR2/TLR6 in C57BL/6 mouse spleen dendritic cells assessed as increase in CD86 expression at 10 to 0.1 ug/ml incubated for 24 hrs by fluorescence based flow cytometric analysis. The experiment is classed as tissue-based. As to conditions: Dendritic cell, filed as agonist, dose 10-0.1 µg/ml.
The test system of experiment [14] is Mus musculus. Description: Immuno-adjuvant activity in C57BL/6 mouse immunized with recombinant hepatitis B surface antigen assessed as increase in anti-HBs antibody at 10 ug, IM administered twice 2 weeks apart by ELISA analysis. The experiment is classed as functional, organism-based. As to conditions: dose 10.0 µg.
In experiment [15] the test system is Mus musculus. Description: Immuno-adjuvant activity in C57BL/6 mouse immunized with recombinant hepatitis B surface antigen assessed as increase in IgG2/IgG1 ratio at 10 ug, IM administered twice 2 weeks apart by ELISA analysis. The experiment is classed as functional, organism-based. As to conditions: dose 10.0 µg.
In experiment [16] the target is T2, TLR2/TLR6 (Mus musculus). Kind of experiment: Agonist activity at TLR2/TLR6 in C57BL/6 mouse spleen B cells assessed as increase in CD40 expression at 10 to 0.1 ug/ml incubated for 24 hrs by fluorescence based flow cytometric analysis. The experiment is classed as tissue-based. As to conditions: B cell, filed as agonist, dose 10-0.1 µg/ml.
Experiment [17] deals with T2, TLR2/TLR6 (Mus musculus). Kind of experiment: Agonist activity at TLR2/TLR6 in C57BL/6 mouse spleen dendritic cells assessed as increase in CD40 expression at 10 to 0.1 ug/ml incubated for 24 hrs by fluorescence based flow cytometric analysis. The experiment is classed as tissue-based. To be noted: Dendritic cell, filed as agonist, dose 10-0.1 µg/ml.

The source of these data is ChEMBL document CHEMBL5104121, “Stereoisomeric Pam2CS based TLR2 agonists: synthesis, structural modelling and activity as vaccine adjuvants” (RSC Med Chem, 2022).

pEC50: −log10 of the molar value. Calls of active or inactive are those of the source. The rule behind the calls is not given here. Where a SMILES comes first, the peptide text is derived from it. The star is where a group is joined. Propyl(2R-PamO,3-PamO) = CCCCCCCCCCCCCCCC(=O)OC[C@H](C*)OC(=O)CCCCCCCCCCCCCCC; Palmitoyl = CCCCCCCCCCCCCCCC(=O)*

T1 sequence (O60603 whole entry): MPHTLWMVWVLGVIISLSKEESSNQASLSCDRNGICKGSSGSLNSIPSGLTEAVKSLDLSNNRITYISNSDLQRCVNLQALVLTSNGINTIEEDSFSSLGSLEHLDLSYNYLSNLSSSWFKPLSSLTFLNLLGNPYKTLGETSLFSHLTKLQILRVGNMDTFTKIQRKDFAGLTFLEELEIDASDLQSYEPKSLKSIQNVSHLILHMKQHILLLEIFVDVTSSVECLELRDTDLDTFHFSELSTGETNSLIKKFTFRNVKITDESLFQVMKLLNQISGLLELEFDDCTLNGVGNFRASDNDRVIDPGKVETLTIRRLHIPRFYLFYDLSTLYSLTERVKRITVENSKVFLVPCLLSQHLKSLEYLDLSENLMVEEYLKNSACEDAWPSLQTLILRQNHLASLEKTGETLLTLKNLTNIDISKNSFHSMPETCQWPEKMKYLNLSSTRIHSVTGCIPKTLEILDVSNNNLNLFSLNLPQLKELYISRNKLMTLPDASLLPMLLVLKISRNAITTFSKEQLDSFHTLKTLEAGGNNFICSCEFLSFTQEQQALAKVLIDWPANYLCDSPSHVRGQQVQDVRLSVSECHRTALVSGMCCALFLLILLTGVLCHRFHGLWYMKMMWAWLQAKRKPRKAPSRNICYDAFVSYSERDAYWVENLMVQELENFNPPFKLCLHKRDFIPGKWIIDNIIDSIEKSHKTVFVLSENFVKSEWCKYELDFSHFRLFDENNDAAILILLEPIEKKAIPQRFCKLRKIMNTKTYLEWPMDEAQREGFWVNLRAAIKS
T1 sequence (Q9Y2C9 whole entry): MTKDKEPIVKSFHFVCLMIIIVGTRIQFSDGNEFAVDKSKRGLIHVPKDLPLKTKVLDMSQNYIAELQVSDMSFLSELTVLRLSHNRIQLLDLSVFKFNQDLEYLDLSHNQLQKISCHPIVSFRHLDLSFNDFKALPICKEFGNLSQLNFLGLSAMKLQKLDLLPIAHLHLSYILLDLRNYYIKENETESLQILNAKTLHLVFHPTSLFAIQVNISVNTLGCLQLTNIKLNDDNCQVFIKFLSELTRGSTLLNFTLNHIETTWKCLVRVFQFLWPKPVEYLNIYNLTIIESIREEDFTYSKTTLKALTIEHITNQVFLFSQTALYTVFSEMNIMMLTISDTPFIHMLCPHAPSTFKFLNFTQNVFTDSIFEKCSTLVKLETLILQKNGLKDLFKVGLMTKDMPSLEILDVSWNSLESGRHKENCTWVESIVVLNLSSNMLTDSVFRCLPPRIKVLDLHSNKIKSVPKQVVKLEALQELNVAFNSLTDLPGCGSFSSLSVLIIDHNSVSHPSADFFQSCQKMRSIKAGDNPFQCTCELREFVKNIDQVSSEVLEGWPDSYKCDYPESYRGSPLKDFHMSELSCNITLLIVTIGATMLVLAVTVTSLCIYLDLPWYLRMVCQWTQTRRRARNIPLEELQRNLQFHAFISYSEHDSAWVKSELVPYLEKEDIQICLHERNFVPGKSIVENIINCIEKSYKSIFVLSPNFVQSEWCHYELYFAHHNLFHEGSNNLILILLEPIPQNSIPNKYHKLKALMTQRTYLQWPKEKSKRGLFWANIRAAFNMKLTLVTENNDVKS

`CCCCCCCCCCCCCCCC(=O)OCC(CSC[C@H](NC(C)=O)C(=O)N[C@@H](CO)C(=O)OC)OC(=O)CCCCCCCCCCCCCCC` (mixture of isomers): the result at TLR2/TLR6 [1], on TLR2/TLR6 [2] and at TLR2/TLR6 [3] was Active. For the same molecule, at TLR2/TLR6 [4], the pEC50 is 8.30.

On to `CCCCCCCCCCCCCCCC(=O)OC[C@@H](CSC[C@H](N)C(=O)N[C@@H](CO)C(=O)OC)OC(=O)CCCCCCCCCCCCCCC`, for which the Activity entry at TLR2/TLR6 (Mus musculus) [5], at TLR2/TLR6 (Mus musculus) [6], on TLR2/TLR6 (Mus musculus) [7] and at TLR2/TLR6 (Mus musculus) [8] was “Dde” in each case. The pEC50 on TLR2/TLR6 [4] was 6.87.

`CCCCCCCCCCCCCCCC(=O)OCC(CSC[C@H](N)C(=O)N[C@@H](CO)C(=O)OC)OC(=O)CCCCCCCCCCCCCCC` (mixture of isomers): the result on TLR2/TLR6 [1], at TLR2/TLR6 [2], in the experiment on Mus musculus [9], in the experiment with Mus musculus [10], on TLR2/TLR6 [3] and in the experiment on Mus musculus [11] was Active. The molecule also gave a negative logarithm of the EC50 (pEC50) on TLR2/TLR6 [4] of 9.00.

Regarding `CCCCCCCCCCCCCCCC(=O)OC[C@H](CSC[C@H](NC(=O)OC(C)(C)C)C(=O)N[C@@H](COC(C)(C)C)C(=O)OC)OC(=O)CCCCCCCCCCCCCCC`, the result on TLR2/TLR6 (Mus musculus) [12] and on TLR2/TLR6 (Mus musculus) [13] was Active. The same molecule gave a pEC50 at TLR2/TLR6 [4] of 5.23.

Regarding `CCCCCCCCCCCCCCCC(=O)OC[C@H](CSC[C@H](NC(C)=O)C(=O)N[C@@H](CO)C(=O)OC)OC(=O)CCCCCCCCCCCCCCC`, the result on TLR2/TLR6 [1], on TLR2/TLR6 [2], in the experiment with Mus musculus [14], in the experiment on Mus musculus [9], with Mus musculus [10] and on TLR2/TLR6 [3] was Active. The outcome with Mus musculus [15] and in the experiment with Mus musculus [11] was Active. Also, on TLR2/TLR6 [4], the pEC50 is 9.10.

For the molecule `CCCCCCCCCCCCCCCC(=O)OC[C@@H](CSC[C@H](NC(C)=O)C(=O)N[C@@H](CO)C(=O)OC)OC(=O)CCCCCCCCCCCCCCC`, the outcome on TLR2/TLR6 [1], on TLR2/TLR6 [2] and on TLR2/TLR6 [3] was Active. This molecule also gave a pEC50 at TLR2/TLR6 [4] of 6.60.

Take `CCCCCCCCCCCCCCCC(=O)OC[C@H](CSC[C@H](N)C(=O)N[C@@H](CO)C(=O)OC)OC(=O)CCCCCCCCCCCCCCC`: the Activity result on TLR2/TLR6 (Mus musculus) [5], on TLR2/TLR6 (Mus musculus) [6], on TLR2/TLR6 (Mus musculus) [7] and at TLR2/TLR6 (Mus musculus) [8] was “Dde” each time. Moreover, the outcome on TLR2/TLR6 [1], at TLR2/TLR6 [2], in the experiment on Mus musculus [14], with Mus musculus [9], with Mus musculus [10] and at TLR2/TLR6 [3] was Active. The result in the experiment on Mus musculus [15] and in the experiment on Mus musculus [11] was Active. The same molecule gave a pEC50 on TLR2/TLR6 [4] of 9.40.

At TLR2/TLR6 [4], `CCCCCCCCCCCCCCCC(=O)OC[C@@H](CSC[C@H](NC(=O)OC(C)(C)C)C(=O)N[C@@H](COC(C)(C)C)C(=O)OC)OC(=O)CCCCCCCCCCCCCCC` had a pEC50 of 5.37.

On TLR2/TLR6 [4], `CCCCCCCCCCCCCCCC(=O)OCC(CSC[C@H](NC(=O)OC(C)(C)C)C(=O)N[C@@H](COC(C)(C)C)C(=O)OC)OC(=O)CCCCCCCCCCCCCCC` (mixture of isomers) had a pEC50 of 5.25.

As to `CCCCCCCCCCCCCCCC(=O)OC[C@H](CSC[C@H](N)C(=O)N[C@@H](CO)C(=O)N[C@@H](CCCCN)C(=O)N[C@@H](CCCCN)C(=O)N[C@@H](CCCCN)C(=O)N[C@@H](CCCCN)C(=O)O)OC(=O)CCCCCCCCCCCCCCC` (H-C(Propyl(2R-PamO,3-PamO))SKKKK-OH), the outcome at TLR2/TLR6 [1], on TLR2/TLR6 [2], with Mus musculus [14], at TLR2/TLR6 (Mus musculus) [12], at TLR2/TLR6 (Mus musculus) [16] and at TLR2/TLR6 (Mus musculus) [17] was Active. In addition, the result on TLR2/TLR6 [3] and at TLR2/TLR6 (Mus musculus) [13] was Active. This molecule had a pEC50 at TLR2/TLR6 [4] of 9.52.

In the case of `CCCCCCCCCCCCCCCC(=O)N[C@@H](CSC[C@@H](COC(=O)CCCCCCCCCCCCCCC)OC(=O)CCCCCCCCCCCCCCC)C(=O)N[C@@H](CO)C(=O)N[C@@H](CCCCN)C(=O)N[C@@H](CCCCN)C(=O)N[C@@H](CCCCN)C(=O)N[C@@H](CCCCN)C(=O)O` (Palmitoyl-C(Propyl(2R-PamO,3-PamO))SKKKK-OH), the result on TLR2/TLR6 [1], at TLR2/TLR6 [2], in the experiment on Mus musculus [14], at TLR2/TLR6 (Mus musculus) [12], on TLR2/TLR6 (Mus musculus) [16] and on TLR2/TLR6 (Mus musculus) [17] was Active. Moreover, the result at TLR2/TLR6 [3] and on TLR2/TLR6 (Mus musculus) [13] was Active. The pEC50 on TLR2/TLR6 [4] was 7.71.
